# Measured values reported in US20260256741A1, “ANTICANCER MALEIMIDE DERIVATIVES FOR USE WITH IMMUNE CHECKPOINT BLOCKADE” (BROWN UNIVERSITY, priority 2022, published 2026).
# Assays:
# Assay type in all cases: cell-based, human
# [1] = test system: KM12C cells; experiment: Microarray gene expression analysis, KM12C
# Protocol: (§1) A total of 0.5×10^6 tumor cells (HCT-116, HT-29, KM12C) were plated in a 6-well plate and allowed to adhere overnight before 24-hour treatment as indicated. 1×10^6 immune cells (NK92, TALL-104) were plated and treated with elraglusib as indicated for 24 hours. RNA was isolated from cell pellets in batches of 6 using an RNeasy Plus Mini Kit (Cat #74134, Qiagen, Hilden, Germany). Acceptable RNA concentration and quality were verified with Nanodrop and Bioanalyzer measurements. GeneChip™ Human Transcriptome Array 2.0 assays were conducted according to manufacturer instructions in two batches using randomized samples to limit batch effects (Cat #902162, Applied Biosystems, Waltham, MA, USA). Applied Biosystems Transcriptomic Analysis Console (TAC) software (RRID: SCR_016519) was used to calculate fold changes in gene expression relative to the untreated control cells. Values were considered statistically significant for p values <0.05.
# [2] = test system: HCT-116 CRC cells; experiment: Western blot analysis of HCT-116 CRC cells
# Protocol: (§2) Recombinant Human TNF-α (Cat #300-01A, PeproTech, Rocky Hill, NJ, USA) and Recombinant Human IFN-γ (Cat #300-02, Peprotech, Rocky Hill, NJ, USA) were purchased for use in western blot analysis while rhTRAIL was generated in-house. Kim et al., J Biol Chem., 279(38):40044-52 (2004).
# (§3) Cells were plated in a 6-well plate and incubated overnight before the spent media was replaced with drugged media. Drug treatment lasted for indicated durations. Protein was extracted using radioimmunoprecipitation (RIPA) assay buffer (Cat #R0278, Sigma-Aldrich, St. Louis, MO) containing cOmplete™, Mini, EDTA-free Protease Inhibitor Cocktail (Cat #4693159001, Roche, Basel, Switzerland) from sub-confluent cells. Denaturing sample buffer was added, samples were boiled at 95 degrees for 10 minutes, and an equal amount of protein lysate was electrophoresed through NuPAGE™ 4 to 12%, Bis-Tris, 1.5 mm, Mini Protein Gels (Invitrogen, Waltham, MA) then transferred to PVDF membranes. The PVDF membrane was blocked with 5% non-fat milk (Sigma-Aldrich, St. Louis, MO) in 1×TTBS. Primary antibodies were incubated with the transferred PVDF membrane in blocking buffer at 4° C. overnight. Secondary antibodies used included Goat anti-Rabbit IgG (H+L) Secondary Antibody, HRP (Cat #31460, Invitrogen, Waltham, MA), and Goat anti-Mouse IgG (H+L) Secondary Antibody, HRP (Cat #31430, Invitrogen, Waltham, MA). Signal was detected using Pierce™ ECL Western Blotting Substrate (Cat #32106, Thermo Scientific, Waltham, MA, USA) and a Syngene Imaging System (RRID: SCR_015770).
# [3] = test system: HCT 116 GFP+ cells; experiment: Single-color GFP+ immune cell co-culture, HCT 116; details: 48 hours
# Protocol: 50,000 HT-29 or HCT 116 cells were seeded in a 12-well tissue culture plate and allowed to adhere overnight. They were then transduced with lentivirus containing the plasmid pLenti_CMV_GFP_Hygro [pLenti CMV GFP Hygro (656-4) was a gift from Eric Campeau & Paul Kaufman (Addgene viral prep #17446-LV; RRID: Addgene_17446)] at a multiplicity of infection of 10 with 8 μg/mL polybrene (hexadimethrine bromide [Cat #107689, Sigma Aldrich, St. Louis, MO, USA) for 24 hours before washing with PBS and replacing with fresh medium (49). The cells were then sorted for GFP-positivity using a BD FACSAria™ III Cell Sorter (RRID: SCR_016695).
# (§4) 5000 HT-29 GFP+ or HCT 116 GFP+ cells were plated per well in a clear-bottom, black-walled 96-well tissue culture plate and were allowed to adhere overnight. Cells were subsequently treated with DMSO, 5 μM elraglusib, and/or 5000 TALL-104 or NK-92 cells (for an effector-to-tumor ratio of 1:1) for 48 hours. Nine images were taken per well at 10× magnification using a Molecular Devices ImageXpress® Confocal HT.ai High-Content Imaging System and quantified for the number of GFP+ objects using the MetaXpress (RRID: SCR_016654) software (Molecular Devices, San Jose, CA, USA). 40× Images were also taken at 24 hours for representative images of cellular morphology changes. Statistical analysis was done using GraphPad Prism 9 (RRID: SCR_002798).
# [4] = test system: CRC (HCT-116, HT-29) and TALL-104 cells; experiment: Pyroptotic events in 40x co-culture images
# Protocol: as §4
# [5] = test system: HT-29 CRC cells; experiment: Western blot analysis of HT-29 CRC cells
# Protocol: as §2, §3
# [6] = test system: TALL-104 cells; experiment: 10x single-cell sequencing, TALL-104; details: 1 μM, 24 hours vs DMSO
# Protocol: Single cells were captured and 3′ single-cell gene expression libraries were conducted (Next GEM v3.1) using the 10× Genomics Chromium system by SingulOmics (SingulOmics, New York, NY, USA). Gene expression libraries were sequenced with ~200 million PE150 reads per sample on Illumina (RRID: SCR_016387) NovaSeq (Illumina, Inc., San Diego, CA, USA). After sequencing clean reads were then analyzed with human reference genome GRCh38 using Cell Ranger v6.1.2 ([RRID: SCR_017344],10× Genomics, Pleasanton, CA, USA). Data were analyzed and visualized using Loupe Browser ([RRID: SCR_018555], 10× Genomics, Pleasanton, CA, USA).
# [7] = test system: NK-92 cells; experiment: Microarray gene expression analysis, NK-92; details: IC-50 concentration (1 μM), 24 hours; FC cutoff >1.5, <−1.5, p<0.05
# Protocol: as §1
# [8] = as the 0-72 hour time-course progressed
# [9] = as the treatment duration increased (0-72 hours)
# [10] = especially at later timepoints (48, 72 hr)
# [11] = low dose as in co-culture assays, until the 48-hour timepoint of 72-hour timecourse
smiles,measurement,setting,value
"Cn1cc(C2=C(c3coc4ccc(F)cc34)C(=O)NC2=O)c2cc3c(cc21)OCO3 [elraglusib, 3-(5-fluorobenzofuran-3-yl)-4-(5-methyl-5H-[1,3]dioxolo[4,5-f]indol-7-yl)-1H-pyrrole-2,5-dione]",GZMA (granzyme A) gene expression fold change,[1]; 24 hours vs DMSO,1.53 FC
same,downregulated genes in VEGFA-VEGFR2 signaling pathway,[1]; 24 hours vs DMSO,48
same,differentially expressed genes post-treatment,"[1]; IC-50 concentration (1 μM), 24 hours, FC cutoff >1.5, <−1.5, p<0.05","1,032"
same,NF-κB p65 expression,[2]; [8],decreased expression
same,PD-L1 expression,[2]; [9],increases in PD-L1 expression
same,Mcl-1 protein expression,[2]; by the 24-hour timepoint,marked decreases in protein expression
same,Bcl-2 protein expression,[2]; [10],decreases in protein expression
same,Survivin protein expression,[2]; [10],decreases in protein expression
same,cleaved PARP (cPARP),[2]; [11],little to no cleaved PARP
same,tumor cell death,[3]; 5 μM elraglusib and NK-92 cells vs drug-only or immune cell-only,increased tumor cell death
same,GFP+ cells per low-powered field,[3]; 5 μM elraglusib only vs DMSO only control,significant decrease
same,number of GFP+ cells per field,[3]; TALL-104 and 5 μM elraglusib vs TALL-104 only,significant decrease
same,pyroptotic events,[4]; co-culture of CRC and TALL-104 cells with 5 μM elraglusib,significant increase in pyroptotic events
same,pyroptotic events,"[4]; drug-only condition, no immune cells",did not observe any pyroptotic events
same,NF-κB p65 expression,[5]; [8],decreased expression
same,PD-L1 expression,[5]; [9],increases in PD-L1 expression
same,Bcl-2 protein expression,[5]; [10],decreases in protein expression
same,Survivin protein expression,[5]; [10],decreases in protein expression
same,cleaved PARP (cPARP),[5]; [11],little to no cleaved PARP
same,immune cell activation marker CD69 expression,[6],increase
same,immune cell chemoattractant CXCR4 expression,[6],increase
same,immunosuppressive marker CHI3L1 expression,[6],decrease
same,differentially expressed genes post-treatment,[7],61
